Results from US11117915B2, “Antibacterial aminoglycoside analogs” (Cipla USA, Inc., priority 2007, dated 2021).
Converted amounts (≈) assume the structure as drawn. Where two headings read alike, the source gives them in different places.

Columns and labels:
E. coli ATCC 25922 = assay: MIC assay, CLSI broth microdilution, E. coli ATCC 25922 (AECO001); format: cell-based; details: for MIC: Escherichia coli, read-out: MIC AECO001; for MIC AECO001: Table 3, E. coli ATCC25922
Method: (§1) Minimum inhibitory concentrations (MIC) were determined by reference Clinical and Laboratory Standards Institute (CLSI) broth microdilution methods per M7-A7 [2006]. Quality control ranges utilizing E. coli ATCC 25922, P. aeruginosa ATCC 27853 and S. aureus ATCC 29213, and interpretive criteria for comparator agents were as published in CLSI M100-S17 [2007]. Briefly, serial two-fold dilutions of the test compounds were prepared at 2× concentration in Mueller Hinton Broth. The compound dilutions were mixed in 96-well assay plates in a 1:1 ratio with bacterial inoculum. The inoculum was prepared by suspension of a colony from an agar plate that was prepared the previous day. Bacteria were suspended in sterile saline and added to each assay plate to obtain a final concentration of 5×10^5 CFU/mL. The plates were incubated at 35° C. for 20 hours in ambient air.
These MIC assays were conducted following the same protocol as set forth in Example 110. As shown, substituted sisomicin derivatives with groups other than methyl at the 6′-position have improved activity against strains expressing the AAC6′-modifying enzymes.

P. aeruginosa ATCC 27853 = assay: MIC assay, CLSI broth microdilution, P. aeruginosa ATCC 27853 (APAE001); format: cell-based; details: Pseudomonas aeruginosa, read-out: MIC APAE001
Method: as §1

[1] = AECO001 is ATCC25922, 35° C., 20 hours
[2] = APAE001 is ATCC27853, 35° C., 20 hours

Row | Compound | MIC (E. coli ATCC 25922; ATCC25922, 20 h) [µg/mL] | MIC (P. aeruginosa ATCC 27853; ATCC27853, 20 h) [µg/mL] | MIC (E. coli ATCC 25922; [1]) [µg/mL] | MIC AECO001 (E. coli ATCC 25922) [µg/mL] | MIC (P. aeruginosa ATCC 27853; [2]) [µg/mL]
1 | CN[C@@H]1[C@@H](O)[C@@H](O[C@@H]2[C@@H](O)[C@H](O[C@H]3OC(CNCCO)=CC[C@H]3N)[C@@H](N)C[C@H]2NC(=O)[C@H](O)CCN)OC[C@]1(C)O [Example 2, 6′-(2-Hydroxy-ethyl)-1-(4-amino-2(R)-hydroxy-butyryl)-sisomicin] | 1 to 16 (≈ 1.69 to 27 µM) | 1 to 16 (≈ 1.69 to 27 µM) |  |  | 
2 | CN[C@@H]1[C@@H](O)[C@@H](O[C@@H]2[C@@H](O)[C@H](O[C@H]3OC(CNCC(O)CO)=CC[C@H]3N)[C@@H](N)C[C@H]2NC(=O)[C@H](O)CCN)OC[C@]1(C)O (stereo partly drawn) [Example 3, 6′-(2-Hydroxy-propanol)-1-(4-amino-2(R)-hydroxy-butyryl)-sisomicin] | 1 to 16 (≈ 1.61 to 25.7 µM) | > 16 |  |  | 
3 | CN[C@@H]1[C@@H](O)[C@@H](O[C@@H]2[C@@H](O)[C@H](O[C@H]3OC(CNCC4CCNCC4)=CC[C@H]3N)[C@@H](N)C[C@H]2NC(=O)[C@H](O)CCN)OC[C@]1(C)O [Example 4, 6′-(Methyl-piperidin-4-yl)-1-(4-amino-2(R)-hydroxy-butyryl)-sisomicin] | 1 to 16 (≈ 1.55 to 24.8 µM) | 1 to 16 (≈ 1.55 to 24.8 µM) |  |  | 
4 | CN[C@@H]1[C@@H](O)[C@@H](O[C@@H]2[C@@H](O)[C@H](O[C@H]3OC(CNCC4CC4)=CC[C@H]3N)[C@@H](N)C[C@H]2NC(=O)[C@H](O)CCN)OC[C@]1(C)O [Example 5, 6′-(Methyl-cyclopropyl)-1-(4-amino-2(R)-hydroxy-butyryl)-sisomicin] | < 1 | 1 to 16 (≈ 1.66 to 26.5 µM) |  |  | 
5 | CN[C@@H]1[C@@H](O)[C@@H](O[C@@H]2[C@@H](O)[C@H](O[C@H]3OC(CNCCCN)=CC[C@H]3N)[C@@H](N)C[C@H]2NC(=O)[C@H](O)CCN)OC[C@]1(C)O [Example 6, 6′-(3-Amino-propyl)-1-(4-amino-2(R)-hydroxy-butyryl)-sisomicin] | 1 to 16 (≈ 1.65 to 26.4 µM) | 1 to 16 (≈ 1.65 to 26.4 µM) |  |  | 
6 | CN[C@@H]1[C@@H](O)[C@@H](O[C@@H]2[C@@H](O)[C@H](O[C@H]3OC(CNCC4CC4)=CC[C@H]3N)[C@@H](N)C[C@H]2NC(=O)[C@H](O)CN)OC[C@]1(C)O [Example 7, 6′-Methyl-cyclopropyl-1-(3-amino-2(R)-hydroxy-propionyl)-sisomicin] | < 1 | 1 to 16 (≈ 1.7 to 27.2 µM) |  |  | 
7 | CN[C@@H]1[C@@H](O)[C@@H](O[C@@H]2[C@@H](O)[C@H](O[C@H]3OC(CNCC4CCNCC4)=CC[C@H]3N)[C@@H](N)C[C@H]2NC(=O)[C@H](O)CN)OC[C@]1(C)O [Example 8, 6′-Methyl-piperidinyl-1-(3-amino-2(R)-hydroxy-propionyl)-sisomicin] | < 1 | 1 to 16 (≈ 1.58 to 25.3 µM) |  |  | 
8 | CN[C@@H]1[C@@H](O)[C@@H](O[C@@H]2[C@@H](O)[C@H](O[C@H]3OC(CNCCO)=CC[C@H]3N)[C@@H](N)C[C@H]2NC(=O)[C@H](O)CN)OC[C@]1(C)O [Example 9, 6′-(2-Hydroxy-ethyl)-1-(3-amino-2(R)-hydroxy-propionyl)-sisomicin] | 1 to 16 (≈ 1.73 to 27.6 µM) | > 16 |  |  | 
9 | CN[C@@H]1[C@@H](O)[C@@H](O[C@@H]2[C@@H](O)[C@H](O[C@H]3OC(CNCC(O)CO)=CC[C@H]3N)[C@@H](N)C[C@H]2NC(=O)[C@H](O)CN)OC[C@]1(C)O (stereo partly drawn) [Example 10, 6′-(2-Hydroxy-propanol)-1-(3-amino-2(R)-hydroxy-propionyl)-sisomicin] | 1 to 16 (≈ 1.64 to 26.3 µM) | 1 to 16 (≈ 1.64 to 26.3 µM) |  |  | 
10 | CN[C@@H]1[C@@H](O)[C@@H](O[C@@H]2[C@@H](O)[C@H](O[C@H]3OC(CNCCCN)=CC[C@H]3N)[C@@H](N)C[C@H]2NC(=O)[C@H](O)CN)OC[C@]1(C)O [Example 11, 6′-(3-Amino-propyl)-1-(3-amino-2(R)-hydroxy-propionyl)-sisomicin] | < 1 | 1 to 16 (≈ 1.69 to 27 µM) |  |  | 
11 | CN[C@@H]1[C@@H](O)[C@@H](O[C@@H]2[C@@H](O)[C@H](O[C@H]3OC(CNCC4CCNCC4)=CC[C@H]3N)[C@@H](N)C[C@H]2NC(=O)[C@@H](O)CCN)OC[C@]1(C)O [Example 12, 6′-(Methyl-piperidin-4-yl)-1-(4-amino-2(S)-hydroxy-butyryl)-sisomicin] |  |  | 1 to 16 (≈ 1.55 to 24.8 µM) | 1 (≈ 1.55 µM) | 1 to 16 (≈ 1.55 to 24.8 µM)
12 | CN[C@@H]1[C@@H](O)[C@@H](O[C@@H]2[C@@H](O)[C@H](O[C@H]3OC(CNCC4CC4)=CC[C@H]3N)[C@@H](N)C[C@H]2NC(=O)[C@@H](O)CN)OC[C@]1(C)O [Example 13, 6′-(Methyl-cyclopropyl)-1-(3-amino-2(S)-hydroxy-propionyl)-sisomicin] |  |  | 1 to 16 (≈ 1.7 to 27.2 µM) | 1 (≈ 1.7 µM) | > 16
13 | CN[C@@H]1[C@@H](O)[C@@H](O[C@@H]2[C@@H](O)[C@H](O[C@H]3OC(CNCC(O)CO)=CC[C@H]3N)[C@@H](N)C[C@H]2NC(=O)[C@@H](O)CN)OC[C@]1(C)O (stereo partly drawn) [Example 14, 6′-(2-Hydroxy-propanol)-1-(3-amino-2(S)-hydroxy-propionyl)-sisomicin] | 1 to 16 (≈ 1.64 to 26.3 µM) | 1 to 16 (≈ 1.64 to 26.3 µM) |  |  | 
14 | CN[C@@H]1[C@@H](O)[C@@H](O[C@@H]2[C@@H](O)[C@H](O[C@H]3OC(CNCC4CC4)=CC[C@H]3N)[C@@H](N)C[C@H]2NC(=O)[C@@H](O)CCN)OC[C@]1(C)O [Example 18, 6′-(Methyl-cyclopropyl)-1-(4-amino-2(S)-hydroxy-butyryl)-sisomicin] |  |  | < 1 | 1 (≈ 1.66 µM) | 1 to 16 (≈ 1.66 to 26.5 µM)
15 | CN[C@@H]1[C@@H](O)[C@@H](O[C@@H]2[C@@H](O)[C@H](O[C@H]3OC(CNCC(O)CO)=CC[C@H]3N)[C@@H](N)C[C@H]2NC(=O)[C@@H](O)CCN)OC[C@]1(C)O (stereo partly drawn) [Example 19, 6′-(2-Hydroxy-propanol)-1-(4-amino-2(S)-hydroxy-butyryl)-sisomicin] | < 1 | 1 to 16 (≈ 1.61 to 25.7 µM) |  |  | 
16 | CN[C@@H]1[C@@H](O)[C@@H](O[C@@H]2[C@@H](O)[C@H](O[C@H]3OC(CNC(=O)C(O)CN)=CC[C@H]3N)[C@@H](N)C[C@H]2NC(=O)[C@@H](O)CN)OC[C@]1(C)O (stereo partly drawn) [Example 20, 6′-(3-Amino-2-hydroxy-propionyl)-1-(3-amino-2(S)-hydroxy-propionyl)-sisomicin] | > 16 | > 16 |  |  | 
17 | CN[C@@H]1[C@@H](O)[C@@H](O[C@@H]2[C@@H](O)[C@H](O[C@H]3OC(CNCC(O)C(N)=O)=CC[C@H]3N)[C@@H](N)C[C@H]2NC(=O)[C@@H](O)CN)OC[C@]1(C)O (stereo partly drawn) [Example 21, 6′-(2-Hydroxy-3-propionamide)-1-(3-amino-2(S)-hydroxy-propionyl)-sisomicin] | 1 to 16 (≈ 1.61 to 25.7 µM) | 1 to 16 (≈ 1.61 to 25.7 µM) |  |  | 
18 | CN[C@@H]1[C@@H](O)[C@@H](O[C@@H]2[C@@H](O)[C@H](O[C@H]3OC(CNCC(O)CO)=CC[C@H]3N)[C@@H](N)C[C@H]2NC(=O)CO)OC[C@]1(C)O (some centres unmarked) [Example 23, 6′-(2-Hydroxy-propanol)-1-(2-hydroxy-acetyl)-sisomicin] | > 16 | > 16 |  |  | 
19 | CN[C@@H]1[C@@H](O)[C@@H](O[C@@H]2[C@@H](O)[C@H](O[C@H]3OC(CNCCCN)=CC[C@H]3N)[C@@H](N)C[C@H]2NC(=O)CO)OC[C@]1(C)O [Example 24, 6′-(3-Amino-propyl)-1-(2-hydroxy-acetyl)-sisomicin] | 1 to 16 (≈ 1.78 to 28.4 µM) | 1 to 16 (≈ 1.78 to 28.4 µM) |  |  | 
20 | CN[C@@H]1[C@@H](O)[C@@H](O[C@@H]2[C@@H](O)[C@H](O[C@H]3OC(CNCCO)=CC[C@H]3N)[C@@H](N)C[C@H]2NC(=O)CO)OC[C@]1(C)O [Example 25, 6′-(2-Hydroxy-ethyl)-1-(2-hydroxy-acetyl)-sisomicin] | 1 to 16 (≈ 1.82 to 29.1 µM) | 1 to 16 (≈ 1.82 to 29.1 µM) |  |  | 
21 | CNCC1=CC[C@@H](N)[C@@H](O[C@H]2C(O)[C@@H](O[C@H]3OC[C@](C)(O)[C@H](NC)[C@H]3O)[C@H](N)C[C@@H]2N)O1 (some centres unmarked) [Mono-substituted Compound 1, reference compound] |  |  |  | 1 (≈ 2.17 µM) | 
22 | CN[C@@H]1[C@@H](O)[C@@H](O[C@@H]2C(O)[C@H](O[C@H]3OC(CNCC4CC4)=CC[C@H]3N)[C@@H](N)C[C@H]2N)OC[C@]1(C)O (some centres unmarked) [Mono-substituted Compound 2, reference compound] |  |  |  | 1 (≈ 1.99 µM) | 
23 | CN[C@@H]1[C@@H](O)[C@@H](O[C@@H]2C(O)[C@H](O[C@H]3OC(CNCC4CCNCC4)=CC[C@H]3N)[C@@H](N)C[C@H]2N)OC[C@]1(C)O (some centres unmarked) [Mono-substituted Compound 3, reference compound] |  |  |  | 0.5 (≈ 0.918 µM) | 
24 | CN[C@@H]1[C@@H](O)[C@@H](O[C@@H]2C(O)[C@H](O[C@H]3OC(CNCCCN)=CC[C@H]3N)[C@@H](N)C[C@H]2N)OC[C@]1(C)O (some centres unmarked) [Mono-substituted Compound 4, reference compound] |  |  |  | 2 (≈ 3.96 µM) | 
25 | CN[C@@H]1C(O)[C@@H](O[C@@H]2[C@@H](O)[C@H](OC3OC(CN)=CC[C@H]3N)[C@@H](N)C[C@H]2NC(=O)[C@@H](O)CN)OC[C@]1(C)O (some centres unmarked) [Mono-substituted Compound 5, reference compound] |  |  |  | 0.5 (≈ 0.935 µM) | 
26 | CN[C@@H]1C(O)[C@@H](O[C@@H]2[C@@H](O)[C@H](OC3OC(CN)=CC[C@H]3N)[C@@H](N)C[C@H]2NC(=O)[C@@H](O)CCN)OC[C@]1(C)O (some centres unmarked) [Mono-substituted Compound 6, reference compound] |  |  |  | 0.5 (≈ 0.911 µM) | 
27 | CN[C@@H]1C(O)[C@@H](O[C@@H]2[C@@H](O)[C@H](OC3OC(CN)=CC[C@H]3N)[C@@H](N)C[C@H]2NC(=O)C2(O)CNC2)OC[C@]1(C)O (some centres unmarked) [Mono-substituted Compound 7, reference compound] |  |  |  | 1 (≈ 1.83 µM) | 
